In patent US20130204017A1, “GLYCERYL ASCORBIC ACID ACYLATED DERIVATIVE OR ITS SALT, PRODUCTION METHOD THEREOF, AND COSMETICS” (SEIWA KASEI COMPANY, LIMITED, priority 2012, published 2013):

system: Normal human dermal fibroblasts; experiment: Collagen production evaluation test (Sircol collagen assay); assay type: cell-based; settings: Homo sapiens, Fibroblast; sample 100 μM; cultured 48 hours; read-out: Collagen production promoting effect (collagen production amount, control group is 100%)
Description: The collagen production promoting effects of the glyceryl ascorbic acid acylated derivatives of the present invention were evaluated, according to the following procedure. As comparison, arbutin, ascorbic acid, sodium ascorbate, magnesium ascorbyl phosphate, glucosyl ascorbic acid, 3-O-glyceryl ascorbic acid and 2-O-glyceryl ascorbic acid were used like in Test Example 1.
Normal human dermal fibroblasts were regulated with a 10% (v/v) fetal bovine serum (manufactured by Invitrogen)-containing D-MEM so as to give a cell density of 2.5×10^4 cells/well, then, pre-incubation for 24 hours was performed on a 96-well plate. After the medium was removed, a sample regulated with a 5% (v/v) fetal bovine serum-containing D-MEM to a concentration of 100 μM was added to each well, then, cultured for 48 hours at 37° C. and 5% CO2. After completion of culturing, the amount of free collagen was measured using Sircol collagen assay kit (manufactured by Biocolor).
The collagen production amount in applying a sample at a concentration of 100 μM is obtained as % value when the control group is 100%, and the results are shown in Table 4 based on the following standard.

Structure (SMILES) | activity at 100 µM [%]
CCCC(=O)OC[C@H](O)[C@H]1OC(=O)C(OCC(O)CO)=C1O (stereo partly shown) [Example 1, 2-O-glyceryl-6-O-butanoyl ascorbic acid] | 100 to 200
O=C1O[C@H]([C@@H](O)CO)C(O)=C1OCC(O)CO (stereo partly shown) [2-O-glyceryl ascorbic acid, reference compound] | 100 to 200
CCCCCCCC(=O)OC[C@H](O)[C@H]1OC(=O)C(OCC(O)CO)=C1O (stereo partly shown) [Example 2, 2-O-glyceryl-6-O-octanoyl ascorbic acid] | 100 to 200

same assay, conditions: sample 100 μM; cultured 48 hours

Structure (SMILES) | Collagen production promoting effect (collagen production amount, control group is 100%)
O=C1O[C@H]([C@@H](O)CO)C(O)=C1O[C@H]1O[C@H](CO)[C@@H](O)[C@H](O)[C@H]1O [Glucosyl ascorbic acid, reference compound] | + (100 to 200%)

system: not listed separately; experiment: In vivo moisturizing test (stratum corneum water content, forearm); settings: 5 g in 100 mL water, pH 7; 0.3 mL on forearm; 3 hours; 10 subjects
Description: (§1) An in vitro moisturizing test and an in vivo moisturizing test of the glyceryl ascorbic acid acylated derivatives of Examples 1 to 6 were carried out according to the following manner. For comparison, sodium ascorbate, magnesium ascorbyl phosphate, glucosyl ascorbic acid, 3-O-glyceryl ascorbic acid, 2-O-glyceryl ascorbic acid and 3-O-cetyl ascorbic acid were used.
Each test sample (5 g) was dissolved in 100 mL of water, and pH thereof was adjusted to 7 with a dilute sodium hydroxide aqueous solution or a dilute hydrochloric acid aqueous solution to prepare a sample solution. A paper filter of 1 cm×1 cm was placed on a forearm portion and 0.3 mL of the prepared sample solution was applied on this, and covered and fixed by a polyamide film. Then, 3 hours and 8 hours after, the stratum corneum water content at the sample-applied portion was measured using CORNEOMETER CM825 (manufactured by Integral Corporation). The test was carried out with 10 subjects, and evaluated according to the following criterion (evaluation standard).
3: Stratum corneum water content increased by 15% or more, based on the water content before sample application
2: Stratum corneum water content increased by 0 to less than 15%, based on the water content before sample application
1: There was no change or there was a reduction in stratum corneum water content, before and after sample application.
Based on the evaluation results, classification was set as described below.
◯: Total points of 10 subjects is 25 or more
Δ: Total points of 10 subjects is 16 to 24
x: Total points of 10 subjects is 15 or less

Structure (SMILES) | in vivo moisturizing (stratum corneum water content) after 3 hours
CCCC(=O)OC[C@H](O)[C@H]1OC(=O)C(OCC(O)CO)=C1O (stereo partly shown) [Example 1, 2-O-glyceryl-6-O-butanoyl ascorbic acid] | ◯ (Total points of 10 subjects is 25 or more)
O=C1O[C@H]([C@@H](O)CO)C(O)=C1OCC(O)CO (stereo partly shown) [2-O-glyceryl ascorbic acid, reference compound] | Δ (Total points of 10 subjects is 16 to 24)
CCCCCCCC(=O)OC[C@H](O)[C@H]1OC(=O)C(OCC(O)CO)=C1O (stereo partly shown) [Example 2, 2-O-glyceryl-6-O-octanoyl ascorbic acid] | ◯ (Total points of 10 subjects is 25 or more)

same assay, conditions: 5 g in 100 mL water, pH 7; 0.3 mL on forearm; 8 hours; 10 subjects

Structure (SMILES) | in vivo moisturizing (stratum corneum water content) after 8 hours
CCCC(=O)OC[C@H](O)[C@H]1OC(=O)C(OCC(O)CO)=C1O (stereo partly shown) [Example 1, 2-O-glyceryl-6-O-butanoyl ascorbic acid] | ◯ (Total points of 10 subjects is 25 or more)
O=C1O[C@H]([C@@H](O)CO)C(O)=C1OCC(O)CO (stereo partly shown) [2-O-glyceryl ascorbic acid, reference compound] | Δ (Total points of 10 subjects is 16 to 24)
CCCCCCCC(=O)OC[C@H](O)[C@H]1OC(=O)C(OCC(O)CO)=C1O (stereo partly shown) [Example 2, 2-O-glyceryl-6-O-octanoyl ascorbic acid] | ◯ (Total points of 10 subjects is 25 or more)

system: not listed separately; experiment: Stability test: odor and color change of 2% aqueous solution stored at 50° C.; assay type: physicochemical; settings: storage 2 weeks at 50° C., pH7, ten panelists
Description: Using 2-O-glyceryl-6-O-octanoyl ascorbic acid obtained in Example 2 and 2-O-glyceryl-6-O-octadecanoyl ascorbic acid obtained in Example 9, an evaluation was made on the stability of odor and color change when stored at 50° C. for 4 weeks, according to the following procedure. For comparison, magnesium ascorbyl phosphate, ascorbic acid and 3-O-glyceryl ascorbic acid were used.
Aqueous solutions (2%) of various test samples were adjusted to pH7 with a dilute sodium hydroxide aqueous solution or a dilute hydrochloric acid aqueous solution, and charged into 50 mL screw tubes. The tubes were sealed and stored at 50° C. for 4 weeks. The odor and degree of color change immediately after preparation, after storage for two weeks and after storage for four weeks were evaluated by ten panelists based on the following methods and according to the following criterion.
3: almost no change as compared with that immediately after preparation
2: color change is observed as compared with that immediately after preparation
1: intense color change is observed as compared with that immediately after preparation
Based on the evaluation results, classification was conducted as shown below.
◯: total point of 10 panelists is 25 or more
Δ: total point of 10 panelists is 16 to 24
x: total point of 10 panelists is 15 or less

Structure (SMILES) | Color change | Odor
CCCCCCCC(=O)OC[C@H](O)[C@H]1OC(=O)C(OCC(O)CO)=C1O (stereo partly shown) [Example 2, 2-O-glyceryl-6-O-octanoyl ascorbic acid] | ◯ (total point of 10 panelists is 25 or more) | ◯ (total point of 10 panelists is 25 or more)

same assay, conditions: storage 4 weeks at 50° C., pH7, ten panelists

Structure (SMILES) | Color change | Odor
CCCCCCCC(=O)OC[C@H](O)[C@H]1OC(=O)C(OCC(O)CO)=C1O (stereo partly shown) [Example 2, 2-O-glyceryl-6-O-octanoyl ascorbic acid] | ◯ (total point of 10 panelists is 25 or more) | ◯ (total point of 10 panelists is 25 or more)

same assay, conditions: storage period 0 (immediately after preparation), pH7, ten panelists

Structure (SMILES) | Color change | Odor
CCCCCCCC(=O)OC[C@H](O)[C@H]1OC(=O)C(OCC(O)CO)=C1O (stereo partly shown) [Example 2, 2-O-glyceryl-6-O-octanoyl ascorbic acid] | ◯ (total point of 10 panelists is 25 or more) | ◯ (total point of 10 panelists is 25 or more)

system: not listed separately; experiment: In vitro moisturizing test (amount of retained water); assay type: physicochemical; settings: 25° C., 65% RH to equilibrium, then 25° C., 20% RH for 24 hours
Description: as §1
A sample shown later was dried, and the dried sample was spread in an amount of about 0.4 g (this weight is represented by W0) on the bottom of a weighing bottle (diameter: 3.6 cm, height excluding lid: 1.8 cm) so as to give uniform thickness. The sample contained in the weighing bottle was allowed to stand still in a constant humidity and constant temperature vessel (ENVIROS KCL-1000, EYELA) under environments of 25° C. and 65% RH. The weight was measured periodically, waiting until sufficient moisture absorption to attain equilibrium of weight increase (about 48 hours). Thereafter, the sample was transferred to under environments of 25° C. and 20% RH (in sealed vessel containing a saturated CH3COOK aqueous solution filled in the bottom part). From the weight after 24 hours (this weight is represented by W1), the amount of retained water per 1 g of the dried sample was calculated according to the following formula.
From the water amount thus calculated, the moisturizing effect was judged based on the following judging criterion, and the results are shown in Table 8.
Δ: 15 mg or more and less than 35 mg

in vitro moisturizing effect (amount of retained water per 1 g of the dried sample) | Structure (SMILES)
Δ (15 mg or more and less than 35 mg) | O=C1O[C@H]([C@@H](O)CO)C(O)=C1O[C@H]1O[C@H](CO)[C@@H](O)[C@H](O)[C@H]1O [Glucosyl ascorbic acid, reference compound]
◯ (35 mg or more) | O=C1O[C@H]([C@@H](O)CO)C(O)=C1OCC(O)CO (stereo partly shown) [2-O-glyceryl ascorbic acid, reference compound]

system: B16 melanoma 4A5 cell; experiment: Melanin production suppressing evaluation test (theophylline-induced melanine production); assay type: cell-based, mouse; settings: sample at a concentration of 100 μl or less; 0.2 mM theophylline; culturing 3 days
Description: As a test for a whitening effect, evaluation of the action of B16 melanoma 4A5 cell on theophylline-induced melanine production was carried out on a glyceryl ascorbic acid acylated derivative of the present invention, according to the following procedure. The same evaluations were carried out also on arbutin, ascorbic acid, sodium ascorbate, magnesium ascorbyl phosphate, glucosyl ascorbic acid, and 3-O-glyceryl ascorbic acid and 2-O-glyceryl ascorbic acid obtained in the Synthesis Examples mentioned above, as comparison.
(1) B16 mouse melanoma 4A5 strain was sowed onto a 48-well plate at a cell density of 2.0×10^4 cells/well. (2) Culturing was performed for 24 hours with Dulbecco's Modified Eagle's medium (manufactured by SIGMA. Hereinafter, abbreviated as D-MEM) containing 10% fetal bovine serum (manufactured by Roshe Diagnostics). Then, it was changed to 0.2 mM theophylline and a 10% fetal bovine serum-containing D-MEM which contains a sample of given concentration. (3) After culturing for 3 days in the co-existence of a sample, the medium was removed using an aspirator. Then, after distilled water was added, cells were broken by an ultrasonic wave. (4) Thereafter, the amount of protein was determined using BCA protein assay kit (manufactured by PIERCE), and the produced amount of melanine was measured by an alkali solubilizing method described later. To the cell-destructed solution was added sodium hydroxide so as to give a final concentration of 2 mol/L and the mixture was dissolved by heating (60° C., 15 minutes), then, the absorbance at 450 nm was measured using a micro plate reader. The melanine amount was calculated from a calibration curve made using synthetic melanine (SIGMA) as a standard. The melanine amount per unit protein was calculated by dividing the melanine amount by the protein amount. (5) The melanine production suppressing rate was calculated according to the following formula.
Melanine production suppressing rate(%)=[1−(A−B)/(C−B)]×100
[wherein, A represents the melanine amount per unit protein (g/g) in adding a sample, B represents the melanine amount per unit protein (g/g) in the normal group, and C represents the melanine amount per unit protein (g/g) in the control group.]
The normal group means the case where neither theophylline nor sample was added.(that is; theophylline(−) and sample(−))
The control group means the case where neither sample was not added but theophylline was added.(that is; theophylline (+) and sample(−))
In the following Tables, the melanine production suppressing rate in applying a sample at a concentration of […] or less is expressed as described below.

Structure (SMILES) | Whitening effect (melanine production suppressing rate)
O=C1O[C@H]([C@@H](O)CO)C(O)=C1O[C@H]1O[C@H](CO)[C@@H](O)[C@H](O)[C@H]1O [Glucosyl ascorbic acid, reference compound] | Δ (Less than 30%)
CCCC(=O)OC[C@H](O)[C@H]1OC(=O)C(OCC(O)CO)=C1O (stereo partly shown) [Example 1, 2-O-glyceryl-6-O-butanoyl ascorbic acid] | ◯ (30 to 49%)
O=C1O[C@H]([C@@H](O)CO)C(O)=C1OCC(O)CO (stereo partly shown) [2-O-glyceryl ascorbic acid, reference compound] | Δ (Less than 30%)
CCCCCCCC(=O)OC[C@H](O)[C@H]1OC(=O)C(OCC(O)CO)=C1O (stereo partly shown) [Example 2, 2-O-glyceryl-6-O-octanoyl ascorbic acid] | ⊚ (50% or more)
